From patent publication US4594238A (Regents of University of Minnesota, priority 1984, dated 1986)
Like-named read-outs stand apart in the source and are kept apart here.

How the values were obtained:
Rat mammary tumor 13762 = test: Comparative tumor response to DDP with and without NaDDTC rescue, Example 2; type: in vivo, Female F344 (Fischer) rats
Description: Female F344 (Fischer) rates, initial weight 100-150 g, were obtained from the Charles River Breeding Laboratory, Wilmington, MA. They were housed in methacrylate cages and given Purina rat chow and water ad libitum for at least one week. Lean weight of the rats were 150 g at the onset of experiments unless otherwise noted.
Mammary Tumor 13762 was obtained in the form of an implanted tumor in a female F344 rat. All intravenous injections were carried out under brief ether anesthesia.
Tumor inoculation was carried out as follows: two rats bearing tumors having a mean diameter of 2.5-3.5 cm were sacrificed using ether anesthesia. The tumors were excised immediately, finely minced, combined, and resuspended in 20-40 ml of normal saline. This suspension was filtered through a gauze pad to remove coarse pieces of tissue and the resulting suspension inoculated subcutaneously (0.2-0.5 ml/injection) into the left flank of each rat.

[1] = after DDP; cited from earlier work
[2] = Platinum excretion kinetics / platinum accumulation after DDP; type: in vivo; conditions: four rats
Description: Platinum excretion kinetics were measured in four animals by measuring urinary platinum levels every 30 minutes for 4 hours and then every 2 hours for an additional 12 hours. Urinary platinum concentration declined to <10% of maximal concentration within 1.5 hours and >95% of the platinum excreted by the kidneys had appeared in the urine by this time.

[3] = mannitol diuresis coupled with intravenous prehydration, dogs; cited from earlier work
[4] = mannitol diuresis coupled with intravenous prehydration, humans; cited from earlier work

SMILES | Other (non-relapsed) rats through day 50 (Rat mammary tumor 13762; DDP 2 mg/kg i.v., control, n=8) | Rats with relapse between days 25 and 30 (Rat mammary tumor 13762; DDP 2 mg/kg i.v., control, n=8) | Rats bearing tumors at day 24 (Rat mammary tumor 13762; DDP 2 mg/kg without rescue) | Tumor-free rats at day 24 (Rat mammary tumor 13762; DDP 2 mg/kg without rescue) | Mean tumor diameter at day 30 (Rat mammary tumor 13762; DDP 2 mg/kg without rescue, six rats) | Mean minimum tumor diameter (Rat mammary tumor 13762; DDP 2 mg/kg without rescue, six tumor-bearing rats, day 24) | Tumor-free rats by day 28 (Rat mammary tumor 13762; DDP 8 mg/kg, unrescued) | Animals with spontaneous relapse at the original site (Rat mammary tumor 13762; after DDP) | Time of spontaneous relapse after DDP administration (Rat mammary tumor 13762; rat, in vivo) | Time of maximal platinum accumulation (renal tubule) [1] | Fraction of kidney-excreted platinum in the urine by […] [2] | Urinary platinum concentration within […], of maximal concentration [2] | Amelioration of acute platinum toxicity [3] | Amelioration of acute platinum toxicity [4]
N.N.[Cl][Pt][Cl] [DDP, cis-dichlorodiammineplatinum(II), reference compound] | essentially free of tumor through day 50 | 2/8 | 6/8 | 2/8 | 2.4 cm | 1.6 cm | 3/8 | 25-75% | approximately 15 days | 30 to 60 min | > 95% | < 10% | – | –
OC[C@@H](O)[C@@H](O)[C@H](O)[C@H](O)CO [mannitol] | – | – | – | – | – | – | – | – | – | – | – | – | ameliorate acute toxicity | ameliorate acute toxicity
